Laboratory results as given in ChEMBL document CHEMBL1155613, “Urinary metabolites of gallic acid in rats and their radical-scavenging effects on 1,1-diphenyl-2-picrylhydrazyl radical” (J Nat Prod, 2000).

Tested on: Radical scavenging activity
Experiment: Antioxidant activity assessed as DPPH free radical scavenging activity
Assay type: functional

| SMILES | EC50 |
| --- | --- |
| O=C(O)c1cc(O)c(O)c(O)c1 [GALLIC ACID] | 4.2 µM |
| COc1c(O)cc(C(=O)O)cc1O | > 100 µM |
| Cc1c(C)c2c(c(C)c1O)CCC(C)(CCCC(C)CCCC(C)CCCC(C)C)O2 (racemic) [alpha-TOCHOPHEROL] | 19.9 µM |
| O=C1O[C@H]([C@@H](O)CO)C(O)=C1O [ASCORBIC ACID] | 16.6 µM |
| Oc1cccc(O)c1O [PYROGALLOL] | 4.2 µM |
| COc1c(O)cc(C(=O)O)cc1OS(=O)(=O)O | > 100 µM |
| COc1c(O)cccc1O[C@@H]1O[C@H](C(=O)O)[C@@H](O)[C@H](O)[C@H]1O | > 100 µM |
| COc1c(O)cccc1O [2-METHOXYRESORCINOL] | 99.6 µM |
